Assay results reported in patent US20090275653A1, “POLYMORPHIC FORMS OF LADOSTIGIL TARTRATE” (priority 2005, published 2009).
Entries after “also recorded” stand apart in the source; their conditions may differ.

Legend:
Type in all cases: physicochemical
[1] = Water content (Karl Fischer) and loss on drying (TGA) of the form as obtained; details: for Water content: by weight
Protocol: (§1) TGA analysis was performed using a Mettler M3 meter. The weight of the samples was about 10 mg. The samples were scanned at a rate of 10° C./min from 25° C. to 200° C. The oven was constantly purged with nitrogen gas at a flow rate of 40 ml/min. Standard 70 μl alumina crucibles covered by lids with 1 hole were used.
(§2) The water content of ladostigil tartrate was measured by methods known in the art, such Karl Fischer analysis.

[2] = Hygroscopicity study: exposure to 0-100% relative humidity at room temperature (Karl Fischer, TGA, crystal form by XRD)
Description: Form E was placed for 1 week under 0-100% relative humidity at room temperature. Table 1 summarizes the results:
Form F was placed for 14 days under 0-100% relative humidity at room temperature. Table 2 summarizes the results:
Form H was placed for 14 days under 0-100% relative humidity at room temperature. Table 3 summarizes the results:
Form J1 was placed for 9 days under 0-100% relative humidity at room temperature. Table 4 summarizes the results:
Table 5 summarizes the results:
(§3) X-Ray powder diffraction data were obtained by method known in the art using a SCINTAG powder X-Ray diffractometer model X'TRA equipped with a solid state detector. Copper radiation of 1.5418 Å was used. A round aluminum sample holder with round zero background quartz plate, with a cavity of 25(diameter)*0.5(depth) mm was used.
as §1, §2
Crystal form was determined after equilibration of ladostigil tartrate form A for 10 days at various relative humidities at room temperature.
Form A1 was exposed at various humidity conditions at room temperature for 13 days.
Ladostigil tartrate form A1 was exposed to various humidity conditions at room temperature for 14 days. TGA was performed, and the crystal form was analyzed.
A mixture of ladostigil tartrate form A1 and E, containing primarily form A1, was exposed at various humidity conditions at room temperature for 14 days.
Form E was placed for 7 days under 0-100% relative humidity at room temperature. Table 12 summarizes the results:
Form F was placed for 14 days under 0-100% relative humidity at room temperature. Table 14 summarizes the results:
Ladostigil tartrate Form H was exposed for 14 days under 0-100% relative humidity at room temperature. Table 15 summarizes the results:
Crystal ladostigil tartrate Form J1 was placed for 9 days under 0-100% relative humidity at room temperature.

[3] = Effect of micronization, pressing and grinding (XRD)
Protocol: The effects of micronization, pressing (1 minute at 100 metric tons) and grinding were determined by XRD and the following results were obtained: […]

[4] = Effect of heating on polymorph form
Protocol: as §3
The heated sample was analyzed by XRD. Form A1 was obtained.
Various polymorph forms and mixtures thereof were heated. The heating conditions and resulting polymorph forms are described in table 17 below: […]

[5] = 100% RH, equilibration 10 days, room temperature
[6] = pressing 1 minute at 100 metric tons
[7] = 0% RH, 14 days, room temperature
[8] = 20% RH, 14 days, room temperature
[9] = 40% RH, 14 days, room temperature
[10] = 60% RH, 14 days, room temperature
[11] = 80% RH, 14 days, room temperature
[12] = 100% RH, 14 days, room temperature
[13] = 0% RH, 9 days, room temperature
[14] = 40% RH, 9 days, room temperature
[15] = 60% RH, 9 days, room temperature
[16] = 100% RH, 9 days, room temperature

## carbamic acid, ethylmethyl-, (3R)-2,3-dihydro-3-(2-propynylamino)-1H-inden-5-yl ester, (2R,3R)-2,3-dihydroxybutanedioate (2:1) [Essentially Amorphous Form]
[1]
  Weight loss / loss on drying by TGA: about 5%
  Water content: about 2%

## carbamic acid, ethylmethyl-, (3R)-2,3-dihydro-3-(2-propynylamino)-1H-inden-5-yl ester, (2R,3R)-2,3-dihydroxybutanedioate (2:1) [Form A]
[2]; 20% RH, equilibration 10 days, room temperature
  Water content: 0.3%
[2]; 40% RH, equilibration 10 days, room temperature
  Water content: 0.3%
[2]; 60% RH, equilibration 10 days, room temperature
  Water content: 0.3%
[2]; 80% RH, equilibration 10 days, room temperature
  Water content: 0.3%
[2]; [5]
  Crystal Form: stable
  Water content: 0.2%
[2]; conclusion in words
  Hygroscopicity: neither Form A nor Form A1 is hygroscopic; also recorded: non-hygroscopic
[2]; high relative humidity, in words
  Crystal form upon exposure to high relative humidity: does not change crystalline form
[3]; grinding
  Crystal form after grinding: mixture of Forms A and A1
[3]; [6]
  Crystal form after pressing: mainly to Form A1
  Crystallinity after pressing: lose some extent of crystallinity
[1]
  Weight loss / loss on drying by TGA: about 0.3%
  Water content: about 0.3%

## carbamic acid, ethylmethyl-, (3R)-2,3-dihydro-3-(2-propynylamino)-1H-inden-5-yl ester, (2R,3R)-2,3-dihydroxybutanedioate (2:1) [Form B]
[4]; 80° C., time not specified
  Resulting form after heating/drying: mixture of Form A1 and form E, primarily form A1
[1]
  Weight loss / loss on drying by TGA: about 1%

## carbamic acid, ethylmethyl-, (3R)-2,3-dihydro-3-(2-propynylamino)-1H-inden-5-yl ester, (2R,3R)-2,3-dihydroxybutanedioate (2:1) [Form C]
[4]; 50° C. under vacuum, 1 hour
  Resulting form after heating/drying: Form C was still detected
[4]; 50° C. under vacuum, 12 hours
  Resulting form after heating/drying: Form B
[4]; 55° C. under vacuum, 17 hours
  Resulting form after heating/drying: Form E
[4]; 55° C., 17 hours
  Resulting form after heating/drying: Form B
[4]; 55° C., 19 hours
  Resulting form after heating/drying: Form B
[1]
  Weight loss / loss on drying by TGA: about 40%
  Water content: about 2%

## carbamic acid, ethylmethyl-, (3R)-2,3-dihydro-3-(2-propynylamino)-1H-inden-5-yl ester, (2R,3R)-2,3-dihydroxybutanedioate (2:1) [Form F]
[2]; [7]
  Crystal Form (resulting form): Form F
  Water content by Karl Fisher: 1.3%
[2]; [8]
  Crystal Form (resulting form): Form F
  Loss on Dry by TGA: 3.0%
  Water content by Karl Fisher: 2.2%
[2]; [9]
  Crystal Form (resulting form): Form F
  Loss on Dry by TGA: 2.9%
  Water content by Karl Fisher: 2.6%
[2]; [10]
  Crystal Form (resulting form): Form A1 + ~10% E
  Loss on Dry by TGA: 0.3%
  Water content by Karl Fisher: 0.3%
[2]; [11]
  Crystal Form (resulting form): Form A1 + ~20% A
  Loss on Dry by TGA: 0.2%
  Water content by Karl Fisher: 0.3%
[2]; [12]
  Loss on Dry by TGA: 0.3%
  Water content by Karl Fisher: 0.3%
[2]; 14 days, room temperature
  Relative humidity range in which the form is stable: 0-40 % RH
[1]
  Weight loss / loss on drying by TGA: about 3%
  Water content: 1.3-2.6%

## carbamic acid, ethylmethyl-, (3R)-2,3-dihydro-3-(2-propynylamino)-1H-inden-5-yl ester, (2R,3R)-2,3-dihydroxybutanedioate (2:1) [Form H]
[2]; [7]
  Crystal Form (resulting form): Form H
  Loss on Dry by TGA: 6.1%
  Water content by Karl Fisher: 0.42%
[2]; [8]
  Crystal Form (resulting form): Form F
  Loss on Dry by TGA: 5.2%
  Water content by Karl Fisher: 0.7%
[2]; [9]
  Crystal Form (resulting form): Form L
  Loss on Dry by TGA: 2.7%
  Water content by Karl Fisher: 1.4%
[2]; [10]
  Crystal Form (resulting form): Form A1 + ~30% E
  Loss on Dry by TGA: 0.5%
  Water content by Karl Fisher: 0.3%
[2]; [11]
  Crystal Form (resulting form): Form A1 + ~20% A
  Loss on Dry by TGA: 0.2%
  Water content by Karl Fisher: 0.2%
[2]; [12]
  Crystal Form (resulting form): Form A + ~30% A1
  Loss on Dry by TGA: 0.2%
  Water content by Karl Fisher: 0.3%
[1]
  Weight loss / loss on drying by TGA: about 6%
  Water content: about 0.6%

## carbamic acid, ethylmethyl-, (3R)-2,3-dihydro-3-(2-propynylamino)-1H-inden-5-yl ester, (2R,3R)-2,3-dihydroxybutanedioate (2:1) [Form J1]
[2]; [13]
  Crystal Form: Form J1
  Loss on Dry by TGA: 5.4%
  Water content by Karl Fisher: 0.1%
[2]; 20% RH, 9 days, room temperature
  Crystal Form: partly to Form K; also recorded: Form K + ~20% J1
[2]; [14]
  Crystal Form: Form K
  Loss on Dry by TGA: 0.8%
  Water content by Karl Fisher: 0.2%
[2]; [15]
  Crystal Form: Form K
  Loss on Dry by TGA: 0.5%
  Water content by Karl Fisher: 0.2%
[2]; 80% RH, 9 days, room temperature
  Crystal Form: Form A1 + ~20% A
[2]; [16]
  Crystal Form: Form A + ~30% A1
  Loss on Dry by TGA: 0.1%
  Water content by Karl Fisher: 0.0%
[1]
  Weight loss / loss on drying by TGA: about 10%
  Water content: about 1%

## carbamic acid, ethylmethyl-, (3R)-2,3-dihydro-3-(2-propynylamino)-1H-inden-5-yl ester, (2R,3R)-2,3-dihydroxybutanedioate (2:1) [Form K]
[2]; from the 9 day study of Form J1, room temperature
  Relative humidity range in which the form is stable: 20-60 % RH
[1]
  Weight loss / loss on drying by TGA: 0.5-0.8%
  Water content: about 0.2%

## carbamic acid, ethylmethyl-, (3R)-2,3-dihydro-3-(2-propynylamino)-1H-inden-5-yl ester, (2R,3R)-2,3-dihydroxybutanedioate (2:1) [Form L]
[4]; 60° C. in conventional oven, 2 hours
  Resulting form after heating/drying: polymorphically stable
[1]
  Weight loss / loss on drying by TGA: 2.7-13.8%
  Water content: 0.6-1.4%
